Measured values: US20030162762A1, “Novel cephalosporin compounds and process for preparing the same” (priority 2000, published 2003)
Converted amounts (≈) assume the structure as drawn.

Experiments:
Experiment in all cases: Minimum Inhibitory Concentration (MIC), agar dilution, standard strains
E. faecalis L239 = format: cell-based; settings: Table 1, Mueller-Hinton agar, 37° C., 20 hours; for MIC: Enterococcus faecalis, L239, read-out: Minimum Inhibitory Concentration, E. faecalis L239
Method: (§1) The effectiveness of the compound according to the present invention was determined by obtaining Minimum Inhibitory Concentration (MIC) of the compounds prepared by the above examples (Compounds I-1 to I-41) and vancomycin, which is the known compound having a potent activity against gram-positive strains, as the control drug against the standard strains. Specifically, Minimum Inhibitory Concentration was obtained by diluting the test compound according to a double dilution method, dispersing them in Mueller-Hinton agar medium, inoculating each of the test strain having 10^7 cfu (colony forming unit) per ml in an amount of 2 μl to the medium and then incubating them at 37° C. for 20 hours. From the result of Minimum Inhibitory Concentration test, it can be seen that the compound according to the present invention has a good activity against major pathogenic microorganisms, which cause hospital infection, including MRSA strains.

S. epidermidis R005 = format: cell-based; settings: Table 1, Mueller-Hinton agar, 37° C., 20 hours; for MIC: Staphylococcus epidermidis, R005, read-out: Minimum Inhibitory Concentration, S. epidermidis R005
Method: as §1

[1] = tested on: Staphylococcus aureus giorgio; format: cell-based; settings: Table 1, Mueller-Hinton agar, 37° C., 20 hours; for MIC: Staphylococcus aureus, read-out: Minimum Inhibitory Concentration, Staphylococcus aureus giorgio
Method: as §1

S. aureus 241 = format: cell-based, Staphylococcus aureus; settings: Table 1, Mueller-Hinton agar, 37° C., 20 hours; for MIC: Staphylococcus aureus, 241, read-out: Minimum Inhibitory Concentration, S. aureus 241
Method: as §1

S. aureus 77 = format: cell-based, Staphylococcus aureus; settings: Table 1, Mueller-Hinton agar, 37° C., 20 hours; for MIC: Staphylococcus aureus, 77, read-out: Minimum Inhibitory Concentration, S. aureus 77
Method: as §1

| Compound | MIC (E. faecalis L239) [µg/mL] | MIC (S. epidermidis R005) [µg/mL] | MIC [1] [µg/mL] | MIC (S. aureus 241) [µg/mL] | MIC (S. aureus 77) [µg/mL] | Minimum Inhibitory Concentration, E. faecalis L239 (E. faecalis L239) [µg/mL] | Minimum Inhibitory Concentration, S. epidermidis R005 (S. epidermidis R005) [µg/mL] | Minimum Inhibitory Concentration, Staphylococcus aureus giorgio [1] [µg/mL] | Minimum Inhibitory Concentration, S. aureus 241 (S. aureus 241) [µg/mL] | Minimum Inhibitory Concentration, S. aureus 77 (S. aureus 77) [µg/mL] |
| --- | --- | --- | --- | --- | --- | --- | --- | --- | --- | --- |
| Nc1nc(SC/C=C/C2=C(C(=O)O)N3C(=O)[C@@H](NC(=O)CSc4cc(Cl)ccc4Cl)[C@H]3SC2)nc2c1CCC2 [Compound I-20, (6R,7R)-3-{(E)-3-[(4-amino-6,7-dihydro-5H-cyclopenta[d]pyrimidin-2-yl)sulfanyl]-1-propenyl}-7-({2-[(2,5-dichlorophenyl)sulfanyl]acetyl}amino)-8-oxo-5-thia-1-azabicyclo[4.2.0]oct-2-ene-2-carboxylic acid] | 2 (≈ 3.2 µM) | 2 (≈ 3.2 µM) | 0.063 (≈ 0.101 µM) | 32 (≈ 51.2 µM) | 2 (≈ 3.2 µM) | – | – | – | – | – |
| 4,6-diamino-1-{(E)-3-[(6R,7R)-2-carboxy-7-({2-[(2,5-dichlorophenyl)sulfanyl]acetyl}amino)-8-oxo-5-thia-1-azabicyclo[4.2.0]oct-2-en-3-yl]-2-propenyl}-5-methylpyrimidin-1-ium [Compound I-40] | – | – | – | – | – | 2 | 0.25 | 0.016 | 8 | 1 |
| CNc1cc(N)nc(C)[n+]1C/C=C/C1=C(C(=O)O)N2C(=O)[C@@H](NC(=O)CSc3cc(Cl)ccc3Cl)[C@H]2SC1 [Compound I-38, 4-amino-1-{(E)-3-[(6R,7R)-2-carboxy-7-({2-[(2,5-dichlorophenyl)sulfanyl]acetyl}amino)-8-oxo-5-thia-1-azabicyclo[4.2.0]oct-2-en-3-yl]-2-propenyl}-2-methyl-6-(methylamino)pyrimidin-1-ium] | – | – | – | – | – | 1 | 0.5 | 0.031 | 8 | 1 |
| Cc1c(N)nc(SC/C=C/C2=C(C(=O)O)N3C(=O)[C@@H](NC(=O)CSc4cc(Cl)ccc4Cl)[C@H]3SC2)nc1N [Compound I-26, (6R,7R)-3-{(E)-3-[(4,6-diamino-5-methyl-2-pyrimidinyl)sulfanyl]-1-propenyl}-7-({2-[(2,5-dichlorophenyl)sulfanyl]acetyl}amino)-8-oxo-5-thia-1-azabicyclo[4.2.0]oct-2-ene-2-carboxylic acid] | 2 (≈ 3.26 µM) | 2 (≈ 3.26 µM) | 0.13 (≈ 0.212 µM) | 16 (≈ 26.1 µM) | 1 (≈ 1.63 µM) | – | – | – | – | – |
| C[n+]1c(N)cc(SC/C=C/C2=C(C(=O)O)N3C(=O)[C@@H](NC(=O)CSc4cc(Cl)ccc4Cl)[C@H]3SC2)nc1N [Compound I-22, (6R,7R)-2,6-diamino-4-({(E)-3-[2-carboxy-7-({2-[(2,5-dichlorophenyl)sulfanyl]acetyl}amino)-8-oxo-5-thia-1-azabicyclo[4.2.0]oct-2-en-3-yl]-2-propenyl}sulfanyl)-1-methylpyrimidin-1-ium] | – | – | – | – | – | 0.25 | 0.063 | <0.008 | 1 | 0.063 |
| Cc1nc(N)cc[n+]1C/C=C/C1=C(C(=O)O)N2C(=O)[C@@H](NC(=O)CSc3cc(Cl)ccc3Cl)[C@H]2SC1 [Compound I-33] | – | – | – | – | – | 0.5 | 0.063 | <0.008 | 2 | 0.26 |
| CNc1cc(N)nc(SC/C=C/C2=C(C(=O)O)N3C(=O)[C@@H](NC(=O)CSc4cc(Cl)ccc4Cl)[C@H]3SC2)n1 [Compound I-30, (6R,7R)-3-((E)-3-{[4-amino-6-(methylamino)-2-pyrimidinyl]sulfanyl}-1propenyl)-7-({2-[(2,5-dichlorophenyl)sulfanyl]acetyl}amino)-8-oxo-5-thia-1-azabicyclo [4.2.0]oct-2-ene-2-carboxylic acid] | 2 (≈ 3.26 µM) | 0.5 (≈ 0.815 µM) | 0.016 (≈ 0.0261 µM) | 16 (≈ 26.1 µM) | 0.5 (≈ 0.815 µM) | – | – | – | – | – |
| Nc1cc[n+](C/C=C/C2=C(C(=O)O)N3C(=O)[C@@H](NC(=O)CSc4cc(Cl)ccc4Cl)[C@H]3SC2)cn1 [Compound I-2, 4-amino-1-{(E)-3-[(6R,7R)-2-carboxy-7-({2-[(2,5-dichlorophenyl)sulfanyl]acetyl}amino)-8-oxo-5-thia-1-azabicyclo[4.2.0]oct-2-en-3-yl]-2-propenyl}pyrimidin-1-ium] | – | – | – | – | – | 1 | 0.25 | <0.008 | 4 | 0.25 |
| 4-amino-1-{(E)-3-[(6R,7R)-2-carboxy-7-({2-[(2,5-dichlorophenyl)sulfanyl]acetyl}amino)-8-oxo-5-thia-1-azabicyclo[4.2.0]oct-2-en-3-yl]-2-propenyl}-2-methyl pyrimidin-1-ium [Compound I-39] | – | – | – | – | – | 0.5 | 0.063 | <0.008 | 2 | 0.25 |
| Nc1ncnc(SC/C=C/C2=C(C(=O)O)N3C(=O)[C@@H](NC(=O)CSc4cc(Cl)ccc4Cl)[C@H]3SC2)c1N [Compound I-25, (6R,7R)-3-{(E)-3-[(5,6-diamino-4-pyrimidinyl)sulfanyl]-1-propenyl}-7-({2-[(2,5-dichlorophenyl)sulfanyl]acetyl}amino)-8-oxo-5-thia-1-azabicyclo[4.2.0]oct-2-ene-2-carboxylic acid] | 2 (≈ 3.34 µM) | 1 (≈ 1.67 µM) | 0.063 (≈ 0.105 µM) | 16 (≈ 26.7 µM) | 0.5 (≈ 0.834 µM) | – | – | – | – | – |
| Nc1cc(SC/C=C/C2=C(C(=O)O)N3C(=O)[C@@H](NC(=O)CNc4cc(Cl)ccc4Cl)[C@H]3SC2)nc(N)n1 [Compound I-5] | – | – | – | – | – | 1 | 0.5 | 0.031 | 16 | 0.5 |
| Nc1nc(SC/C=C/C2=C(C(=O)O)N3C(=O)[C@@H](NC(=O)CSc4cc(Cl)ccc4Cl)[C@H]3SC2)c2c([n+]1N)CCC2 [Compound I-21] | – | – | – | – | – | 0.25 | 0.063 | <0.008 | 1 | 0.063 |
| Nc1cc(N)[n+](C/C=C/C2=C(C(=O)O)N3C(=O)[C@@H](NC(=O)CSc4cc(Cl)ccc4Cl)[C@H]3SC2)cn1 [Compound I-36] | – | – | – | – | – | 0.25 | 0.063 | <0.008 | 1 | 0.13 |
| Nc1nc[n+](C/C=C/C2=C(C(=O)O)N3C(=O)[C@@H](NC(=O)CSc4cc(Cl)ccc4Cl)[C@H]3SC2)c(N)c1N [Compound I-35] | – | – | – | – | – | 0.5 | 0.25 | 0.016 | 2 | 0.25 |
| Cc1nc(N)cc(N(C)C)[n+]1C/C=C/C1=C(C(=O)O)N2C(=O)[C@@H](NC(=O)CSc3cc(Cl)ccc3Cl)[C@H]2SC1 [Compound I-37, 4-amino-1-{(E)-3-[(6R,7R)-2-carboxy-7-({2-[(2,5-dichlorophenyl)sulfanyl]acetyl}amino)-8-oxo-5-thia-1-azabicyclo[4.2.0]oct-2-en-3-yl]-2-propenyl}-6-(dimethylamino)-2-methylpyrimidin-1-ium] | – | – | – | – | – | 0.5 | 0.25 | 0.016 | 4 | 0.25 |
| Nc1cc(N)nc(SC/C=C/C2=C(C(=O)O)N3C(=O)[C@@H](NC(=O)CSc4cc(Cl)ccc4Cl)[C@H]3SC2)n1 [Compound I-24, (6R,7R)-3-{(E)-3-[(4,6-diamino-2-pyrimidinyl)sulfanyl]-1-propenyl}-7-({2-[(2,5-dichlorophenyl)sulfanyl]acetyl}amino)-8-oxo-5-thia-1-azabicyclo[4.2.0]oct-2-ene-2-carboxylic acid] | 0.5 (≈ 0.834 µM) | 0.13 (≈ 0.217 µM) | 0.016 (≈ 0.0267 µM) | 4 (≈ 6.67 µM) | 0.25 (≈ 0.417 µM) | – | – | – | – | – |
| Nc1nc2cc(N)[n+](C/C=C/C3=C(C(=O)O)N4C(=O)[C@@H](NC(=O)CSc5cc(Cl)ccc5Cl)[C@H]4SC3)cn2n1 [Compound I-32] | – | – | – | – | – | 1 | 0.25 | 0.016 | 4 | 0.5 |
